Results reported in US20220194938A1, “NOVEL COMPOUNDS AND PHARMACEUTICAL COMPOSITIONS THEREOF FOR THE TREATMENT OF INFLAMMATORY DISORDERS” (GALAPAGOS NV, priority 2019, published 2022).
Values after ≈ are worked out from the molar mass of the structure shown. Values joined by “and” are separate entries in the source; they are usually repeats but may differ in a detail not shown here. Identical values can stand only once. Like-named read-outs stand apart in the source and are kept apart here.

Assay: Thermodynamic solubility
Type: physicochemical
Details: 37° C.; for solubility thermodynamic at 24 h: thermodynamic from solid
Text: 4.2. Thermodynamic Solubility
Poor solubility, in particular poor thermodynamic solubility can limit the absorption of compounds from the gastrointestinal tract which in turn may reduce oral bioavailability.
Thermodynamic solubility investigates the solubility of a compound as a saturated solution in equilibrium, by opposition to kinetic solubility, which measures the solubility of a metastable solution where supersaturation may occur and provide over estimation of the actual solubility of the compound. (Klein 2010)
4.2.1. Thermodynamic Solubility—Protocol 1
(§1) In a 8 mL glass vial, 1-2 mg of dry matter of compound are added and stirred with the suitable buffers (Fed State Simulated Intestine Fluid, FeSSIF, or Fasted State Simulated Intestine Fluid, FaSSIF, or Fasted State Simulated Gastric Fluid, FaSSGF, or phosphate buffer pH 7.4) for 24 h at r.t. (for the buffer pH 7.4) or 37° C. (for the GI fluids). The concentration of the mixture is 1 mg/mL.
A volume of 500 μL are sampled, centrifuged for 10 min at 10 000 rpm and filtered. The samples are diluted in duplicates in DMSO (F100 and F10). Then, a final dilution (F100) in 80/20 H2O/MeCN containing the internal standard (warfarin) is used for LCMS-MS analysis.
A standard curve is made starting from a 200,000 ng/mL stock in DMSO, freshly prepared from dry matter. Then, successive concentrations at […], 1,000, 200 and 75 ng/mL in DMSO are prepared by using the Tecan robot.
Two quality control samples are made: one of 10,000 ng/mL and one of 500 ng/mL in DMSO, also starting from the DMSO working stock solution at 200,000 ng/mL.
The standard curve and quality controls are diluted a F100 in 80/20 H2O/MeCN (with internal standard) and analyzed on LC/MS-MS (API4000 or API5500).
(§2) The samples are analyzed on LC-MS with a flow rate of 0.6 mL/min. The mobile phase A is 0.1% formic acid in water and the mobile phase B is 0.1% formic acid in MeCN. The sample is run under positive or negative ion spray on Pursuit C18-5 μm (2.0×20 mm) column, from Agilent.
The peak areas of the standard curve are plotted in a graph and a linear or polynomial of the second order equation is used to calculate the unknown concentrations of the test compound.
4.2.2. Thermodynamic Solubility—Protocol 2
as §1, with “In an” for “In a”, “compound were” for “compound are”, “mixture was” for “mixture is”
A volume of 1000 μL were sampled, centrifuged for 10 min at 10 000 rpm and 500 μL of the supernatant were filtered on captiva plate. The samples were diluted in duplicates in DMSO (F100 and F10). Then, a final dilution (F100) in 80/20 H2O/MeCN containing the internal standard (warfarin) was used for LCMS-MS analysis.
A standard curve was made starting from a 40,000 ng/mL stock in DMSO, freshly prepared from dry matter. Then, successive concentrations at 15,000, 11,000, 6,000, 2,500, 1,000, 375, 150 and 75 ng/mL in DMSO were prepared.
Three quality control samples were made: one of 10,000, 1,500 and 200 ng/mL in DMSO, also starting from the DMSO working stock solution at 40,000 ng/mL.
The standard curve and quality controls were diluted a F100 in 80/20 H2O/MeCN (with internal standard) and analyzed on LC/MS-MS (API4000 or API5500).
as §2, with “were” for “are”, “was” for “is”, “90% acetonitrile and 10% of water.” for “MeCN.”, “Agilent. […]” for “Agilent.”

[1] = Fasted State Simulated Gastric Fluid, 24 h
[2] = Fasted State Simulated Intestine Fluid, 24 h
[3] = Fasted State Simulated Gastric Fluid (FaSSGF), fassgf or other biorelevant, Fasted State Simulated Gastric Fluid, read-out: Tsol FaSSGF
[4] = Fasted State Simulated Intestine Fluid (FaSSIF), fassif, Fasted State Simulated Intestine Fluid, read-out: Tsol FaSSIF
[5] = Fed State Simulated Intestine Fluid (FeSSIF), fessif, Fed State Simulated Intestine Fluid, read-out: Tsol FeSSIF

| SMILES | solubility thermodynamic at 24 h [3] [µg/mL] | solubility thermodynamic at 24 h [4] [µg/mL] | also measured |
| --- | --- | --- | --- |
| CNC(=O)c1cc2nc(CCC(C)(C)O)cn2cc1NC(=O)c1cccc(C(F)(F)F)n1 [Compound 2, 2-(3-hydroxy-3-methyl-butyl)-N-methyl-6-[[6-(trifluoromethyl)pyridine-2-carbonyl]amino]imidazo[1,2-a]pyridine-7-carboxamide] | – | – | Tsol FaSSGF [1]: 673 µg/mL and 969 µg/mL; Tsol FaSSIF [2]: 9.08 µg/mL and 9.24 µg/mL; Tsol FeSSIF (Fed State Simulated Intestine Fluid, 24 h): 35.4 µg/mL and 25.8 µg/mL |
| COc1cc2nc(CCC(C)(C)O)cn2cc1NC(=O)c1cccc(C(F)(F)F)n1 [Compound 3, N-[2-(3-hydroxy-3-methyl-butyl)-7-methoxy-imidazo[1,2-a]pyridin-6-yl]-6-(trifluoromethyl)pyridine-2-carboxamide] | 880 (≈ 2080 µM) | 31.4 (≈ 74.3 µM) | solubility thermodynamic at 24 h [5]: 360 µg/mL (≈ 852 µM) |
| COc1cc2nc(CCC(C)(C)O)cn2cc1NC(=O)c1cccn(C)c1=O [Compound 4, N-[2-(3-hydroxy-3-methyl-butyl)-7-methoxy-imidazo[1,2-a]pyridin-6-yl]-1-methyl-2-oxo-pyridine-3-carboxamide] | 116 (≈ 302 µM) | 125 (≈ 325 µM) | – |
| COc1cc2nc(CCC(C)(C)O)cn2cc1NC(=O)c1cccn(C2CC2)c1=O [Compound 5, 1-cyclopropyl-N-[2-(3-hydroxy-3-methyl-butyl)-7-methoxy-imidazo[1,2-a]pyridin-6-yl]-2-oxo-pyridine-3-carboxamide] | > 1000 | 798 (≈ 1940 µM) | solubility thermodynamic at 24 h [5]: > 1000 µg/mL |
| COc1cc2nc(CCC(C)(C)O)cn2cc1NC(=O)c1cccc(C)n1 [Compound 6, N-[2-(3-hydroxy-3-methyl-butyl)-7-methoxy-imidazo[1,2-a]pyridin-6-yl]-6-methyl-pyridine-2-carboxamide] | – | 692 (≈ 1880 µM) | – |
| COc1cc2nc(CCC(C)(C)O)cn2cc1NC(=O)c1cccc(C(F)F)n1 [Compound 7, 6-(difluoromethyl)-N-[2-(3-hydroxy-3-methyl-butyl)-7-methoxy-imidazo[1,2-a]pyridin-6-yl]pyridine-2-carboxamide] | – | 15.2 (≈ 37.6 µM) | – |
| COc1cccc(C(=O)Nc2cn3cc(CCC(C)(C)O)nc3cc2OC)n1 [Compound 8, N-[2-(3-hydroxy-3-methyl-butyl)-7-methoxy-imidazo[1,2-a]pyridin-6-yl]-6-methoxy-pyridine-2-carboxamide] | – | 8.56 (≈ 22.3 µM) | – |
| COc1cc2nc(CCC(C)(C)O)cn2cc1NC(=O)c1cccn(C(F)F)c1=O [Compound 12, 1-(difluoromethyl)-N-[2-(3-hydroxy-3-methyl-butyl)-7-methoxy-imidazo[1,2-a]pyridin-6-yl]-2-oxo-pyridine-3-carboxamide] | > 1000 | 188 (≈ 447 µM) | – |
| COc1cc2nc(CCC(C)(C)O)cn2cc1NC(=O)c1cccn(CC(F)(F)F)c1=O [Compound 13, N-[2-(3-hydroxy-3-methyl-butyl)-7-methoxy-imidazo[1,2-a]pyridin-6-yl]-2-oxo-1-(2,2,2-trifluoroethyl)pyridine-3-carboxamide] | – | 600 (≈ 1330 µM) | – |
| COc1cc2nc(CCC(C)(C)O)cn2cc1NC(=O)c1cccn(C2CCC2)c1=O [Compound 18, 1-cyclobutyl-N-[2-(3-hydroxy-3-methyl-butyl)-7-methoxy-imidazo[1,2-a]pyridin-6-yl]-2-oxo-pyridine-3-carboxamide] | – | 253 (≈ 596 µM) | – |
| COc1cc2nc(CCC(C)(C)O)cn2cc1NC(=O)c1cccc(C(C)(F)F)n1 [Compound 20, 6-(1,1-difluoroethyl)-N-[2-(3-hydroxy-3-methyl-butyl)-7-methoxy-imidazo[1,2-a]pyridin-6-yl]pyridine-2-carboxamide] | – | 2.63 (≈ 6.29 µM) | – |
| CCn1cccc(C(=O)Nc2cn3cc(CCC(C)(C)O)nc3cc2OC)c1=O [Compound 23, 1-ethyl-N-[2-(3-hydroxy-3-methyl-butyl)-7-methoxy-imidazo[1,2-a]pyridin-6-yl]-2-oxo-pyridine-3-carboxamide] | > 1000 | 459 (≈ 1150 µM) | – |
| COc1cc2nc(CCS(C)(=O)=O)cn2cc1NC(=O)c1cccc(C(F)(F)F)n1 [Compound 24, N-[7-methoxy-2-(2-methylsulfonylethyl)imidazo[1,2-a]pyridin-6-yl]-6-(trifluoromethyl)pyridine-2-carboxamide] | > 1000 | 2.44 (≈ 5.52 µM) | – |
| COc1cc2nc(CCS(C)(=O)=O)cn2cc1NC(=O)c1cccn(C2CC2)c1=O [Compound 25, 1-cyclopropyl-N-[7-methoxy-2-(2-methylsulfonylethyl)imidazo[1,2-a]pyridin-6-yl]-2-oxo-pyridine-3-carboxamide] | – | 41.5 (≈ 96.4 µM) | – |
| CC(C)(O)CCc1cn2cc(NC(=O)c3cccc(C(F)(F)F)n3)c(C(N)=O)cc2n1 [Compound 31, 2-(3-hydroxy-3-methyl-butyl)-6-[[6-(trifluoromethyl)pyridine-2-carbonyl]amino]imidazo[1,2-a]pyridine-7-carboxamide] | > 1000 | 2.97 (≈ 6.82 µM) | solubility thermodynamic at 24 h [5]: 4.4 µg/mL (≈ 10.1 µM) |
| COCCc1cn2cc(NC(=O)c3cccc(C(F)(F)F)n3)c(OC)cc2n1 [Compound 35, N-[7-methoxy-2-(2-methoxyethyl)imidazo[1,2-a]pyridin-6-yl]-6-(trifluoromethyl)pyridine-2-carboxamide] | – | < 30 | – |
| CCOc1c(NC(=O)c2cccn(C3CC3)c2=O)cn2cc(CCC(C)(C)O)nc2c1F [Compound 37, 1-cyclopropyl-N-[7-ethoxy-8-fluoro-2-(3-hydroxy-3-methyl-butyl)imidazo[1,2-a]pyridin-6-yl]-2-oxo-pyridine-3-carboxamide] | > 1000 | 70.5 (≈ 159 µM) | – |
| CCOc1c(NC(=O)c2cccn(C)c2=O)cn2cc(CCC(C)(C)O)nc2c1F [Compound 38, N-[7-ethoxy-8-fluoro-2-(3-hydroxy-3-methyl-butyl)imidazo[1,2-a]pyridin-6-yl]-1-methyl-2-oxo-pyridine-3-carboxamide] | > 1000 | 96.8 (≈ 232 µM) | – |
| CCOc1c(NC(=O)c2cccn(C3CC3)c2=O)cn2cc(CCS(C)(=O)=O)nc2c1F [Compound 39, 1-cyclopropyl-N-[7-ethoxy-8-fluoro-2-(2-methylsulfonylethyl)imidazo[1,2-a]pyridin-6-yl]-2-oxo-pyridine-3-carboxamide] | > 1000 | – | Tsol FaSSGF [1]: >1000, μg/mL; Tsol FaSSIF [2]: 7.3 µg/mL and 7.50 µg/mL; solubility thermodynamic at 24 h [5]: 20.9 µg/mL (≈ 45.2 µM) |
| COc1c(NC(=O)c2cccn(C3CC3)c2=O)cn2cc(CCC(C)(C)O)nc2c1F [Compound 42, 1-cyclopropyl-N-[8-fluoro-2-(3-hydroxy-3-methyl-butyl)-7-methoxy-imidazo[1,2-a]pyridin-6-yl]-2-oxo-pyridine-3-carboxamide] | > 1000 | 181 (≈ 422 µM) | solubility thermodynamic at 24 h [5]: 612 µg/mL (≈ 1430 µM) |
